The values that follow come from patent US20060029668A1, “Sustained release L-arginine formulations and methods of manufacture and use” (priority 2002, published 2006).

For one assay, the system named is infarct volume. The assay can be described thus: Dose optimization of combination of simvastatin and L-arginine, infarct volume in mice. The format is in vivo. Conditions: mice injected with varying levels of simvastatin and L-arginine; predicted by statistical analysis.
A further assay concerns eNOS. As to the kind of experiment: eNOS function in cultured human aortic endothelial cells (conversion of labeled L-arginine to L-citrulline). The format is cell-based. The following applies: HAEC incubated with 1.0 or 0.3 μM simvastatin for 24 hours; relative to untreated cells. As for the experimental part:
Human aortic endothelial cells (HAEC-c) (BioWhittaker, Walkersville, Md.) were cultured according to the following procedure. Endothelial cells in EBM-2/EGM-2 media (BioWhittaker) were grown to about 80% to about 90% confluence. Each flask of cells was washed with 5 ml media followed by the addition of 15 ml media to each cell. Cells were detached with a cell scraper and transferred to a 50 ml conical tube. Cells were pelleted by centrifugation at 800 RMP for 8 min. The supernatant was discarded and the pellet was washed with cold 1× PBS.
The cells were homogenized as follows. The pellet was loosened and 400 μl of 10× homogenization buffer (250 mM Tris at pH 7.4, 10 mM EDTA and 10 mM EGTA) was added. The sample was homogenized using a 27 G needle about 10 times. The homogenate was transferred to a 1.5 ml epindorph tube. The pellet was subsequently resuspended in 30 to 45 μl of 1× homogenization buffer. […]
Following incubation, about 400 μl of stop equilibration buffer (50 mM NaAcetate at pH 5.5) was added to each sample and control. […] Results are calculated, in part, by subtracting background (buffer control) from each sample. The sample values are expressed as counts per minute or as a percent of untreated cells.
Relative eNOS function was measured by the conversion of labeled-L-arginine to L-citrulline and expressed as a percent of citrulline produced by the non-treated cells. […]

The test system of assay [1] is endothelium-dependent vasodilation. The assay can be described thus: Endothelium-dependent vasodilation by brachial artery ultrasound in subjects with elevated ADMA. The format is in vivo, human. The following applies: subjects in whom eNOS is blocked by elevated ADMA levels.

SMILES strings stand for the structures.

For `N=C(N)NCCC[C@H](N)C(=O)O` [L-arginine], the “optimal range of the combination” value in the assay with infarct volume was 20 to 25 mg/kg.
In the case of `CCC(C)(C)C(=O)O[C@H]1C[C@@H](C)C=C2C=C[C@H](C)[C@H](CC[C@@H]3C[C@@H](O)CC(=O)O3)[C@H]21` [simvastatin w/o L-arginine SR, simvastatin], the “level of eNOS function” value with eNOS is “increases”. The “effect on endothelial function” value in assay [1] is on record as “does not enhance”.
